Mutagenic call data for five molecules are collected here from PubChem BioAssay AID1259407 (Chemical Carcinogenesis Research Information System (CCRIS), 2018).

The source made the active and inactive calls. How the calls were made is not given here.

In the data set the test system is CCRIS mutagenicity, Ames/micronucleus/aberration tests. In words: CCRIS mutagenicity studies.
The mark [1] stands for this setting: Test System: AMES SALMONELLA TYPHIMURIUM, Strain/Indicator: TA98, Metabolic Activation: NONE, Method: STANDARD PLATE.
[2] abbreviates: Test System: AMES SALMONELLA TYPHIMURIUM, Strain/Indicator: TA98, Metabolic Activation: RAT, LIVER, S-9, AROCLOR 1254, Method: STANDARD PLATE.
Where [3] appears, read: Test System: AMES SALMONELLA TYPHIMURIUM, Strain/Indicator: TA100, Metabolic Activation: NONE, Method: STANDARD PLATE.
The mark [4] stands for this setting: Test System: AMES SALMONELLA TYPHIMURIUM, Strain/Indicator: TA100, Metabolic Activation: RAT, LIVER, S-9, AROCLOR 1254, Method: STANDARD PLATE.

Consider `CSC(C)(C)/C=N/O`, for which the mutagenic call was “inactive; negative” (End Point: IN VITRO CHROMOSOMAL ABERRATIONS, Test System: CHO-LB CELLS, Metabolic Activation: NONE); “inactive; negative” (End Point: IN VITRO CHROMOSOMAL ABERRATIONS, Test System: CHO-LB CELLS, Metabolic Activation: RAT, LIVER, S-9, AROCLOR 1254); “inactive; negative” (Test System: AMES SALMONELLA TYPHIMURIUM, Strain/Indicator: TA98, Metabolic Activation: HAMSTER, LIVER, S-9, AROCLOR 1254, Method: STANDARD PLATE); “inactive; negative” under setting [1]; “inactive; negative” under setting [2]; “inactive; negative” (Test System: AMES SALMONELLA TYPHIMURIUM, Strain/Indicator: TA100, Metabolic Activation: HAMSTER, LIVER, S-9, AROCLOR 1254, Method: STANDARD PLATE). For the same molecule, the mutagenic call under setting [3] was “inactive; negative”; the mutagenic call under setting [4] is “inactive; negative”; the mutagenic call (Test System: AMES SALMONELLA TYPHIMURIUM, Strain/Indicator: TA1535, Metabolic Activation: HAMSTER, LIVER, S-9, AROCLOR 1254, Method: STANDARD PLATE) is “inactive; negative”; the mutagenic call (Test System: AMES SALMONELLA TYPHIMURIUM, Strain/Indicator: TA1535, Metabolic Activation: NONE, Method: STANDARD PLATE) is “inactive; negative”; the mutagenic call (Test System: AMES SALMONELLA TYPHIMURIUM, Strain/Indicator: TA1535, Metabolic Activation: RAT, LIVER, S-9, AROCLOR 1254, Method: STANDARD PLATE) is “inactive; negative”; the mutagenic call (Test System: AMES SALMONELLA TYPHIMURIUM, Strain/Indicator: TA1537, Metabolic Activation: HAMSTER, LIVER, S-9, AROCLOR 1254, Method: STANDARD PLATE) was “inactive; negative”. In addition, the mutagenic call is “inactive; negative” (Test System: AMES SALMONELLA TYPHIMURIUM, Strain/Indicator: TA1537, Metabolic Activation: NONE, Method: STANDARD PLATE); “inactive; negative” (Test System: AMES SALMONELLA TYPHIMURIUM, Strain/Indicator: TA1537, Metabolic Activation: RAT, LIVER, S-9, AROCLOR 1254, Method: STANDARD PLATE); “inactive; negative” (Test System: AMES SALMONELLA TYPHIMURIUM, Strain/Indicator: TA1538, Metabolic Activation: HAMSTER, LIVER, S-9, AROCLOR 1254, Method: STANDARD PLATE); “inactive; negative” (Test System: AMES SALMONELLA TYPHIMURIUM, Strain/Indicator: TA1538, Metabolic Activation: NONE, Method: STANDARD PLATE); “inactive; negative” (Test System: AMES SALMONELLA TYPHIMURIUM, Strain/Indicator: TA1538, Metabolic Activation: RAT, LIVER, S-9, AROCLOR 1254, Method: STANDARD PLATE); “inactive; negative. reevaluation of results: equivocal” (Test System: MOUSE LYMPHOMA, Strain/Indicator: L5178Y (TK+/TK-), Metabolic Activation: NONE, Method: SUSPENSION/PLATE). In addition, the mutagenic call (Test System: MOUSE LYMPHOMA, Strain/Indicator: L5178Y (TK+/TK-), Metabolic Activation: RAT, LIVER, S-9, AROCLOR 1254, Method: SUSPENSION/PLATE) is “inactive; negative. reevaluation of results: negative”.
On to `[N-]=[N+]=NC[C@H]1O[C@H](O)[C@H](O)[C@@H](O)[C@H]1O`, for which the mutagenic call under setting [1] is “inactive; negative” and the mutagenic call under setting [3] is “active; positive”.
Take `N=c1c2ncn(C(c3ccccc3)c3ccccc3)c2ncn1O`: the mutagenic call (Test System: AMES SALMONELLA TYPHIMURIUM, Strain/Indicator: TA97, Metabolic Activation: NONE, Method: STANDARD PLATE) is “inactive; negative”; the mutagenic call (Test System: AMES SALMONELLA TYPHIMURIUM, Strain/Indicator: TA97, Metabolic Activation: RAT, LIVER, S-9, AROCLOR 1254, Method: STANDARD PLATE) is “inactive; negative”; the mutagenic call under setting [1] was “inactive; negative”; the mutagenic call under setting [2] is “active; positive”; the mutagenic call under setting [3] is “inactive; negative”; the mutagenic call under setting [4] is “inactive; negative”.
Regarding `O=C(O)c1ccco1`, the mutagenic call by setting is: under setting [1], “inactive; negative”; under setting [3], “inactive; negative”.
Take `Clc1c(Cl)c(Cl)c2c(c1Cl)Oc1c(Cl)c(Cl)c(Cl)c(Cl)c1O2`: the mutagenic call (Test System: AMES SALMONELLA TYPHIMURIUM, Strain/Indicator: TA97, Metabolic Activation: HAMSTER, LIVER, S-9, AROCLOR 1254 (10 OR 30%), Method: PREINCUBATION) is “inactive; negative”; the mutagenic call (Test System: AMES SALMONELLA TYPHIMURIUM, Strain/Indicator: TA97, Metabolic Activation: NONE, Method: PREINCUBATION) is “inactive; negative”; the mutagenic call (Test System: AMES SALMONELLA TYPHIMURIUM, Strain/Indicator: TA97, Metabolic Activation: RAT, LIVER, S-9, AROCLOR 1254 (10 OR 30%), Method: PREINCUBATION) is “inactive; negative”; the mutagenic call (Test System: AMES SALMONELLA TYPHIMURIUM, Strain/Indicator: TA98, Metabolic Activation: HAMSTER, LIVER, S-9, AROCLOR 1254 (10 OR 30%), Method: PREINCUBATION) was “inactive; negative”; the mutagenic call (Test System: AMES SALMONELLA TYPHIMURIUM, Strain/Indicator: TA98, Metabolic Activation: NONE, Method: PREINCUBATION) is “inactive; negative”; the mutagenic call (Test System: AMES SALMONELLA TYPHIMURIUM, Strain/Indicator: TA98, Metabolic Activation: RAT, LIVER, S-9, AROCLOR 1254 (10 OR 30%), Method: PREINCUBATION) is “inactive; negative”. Further, the mutagenic call (Test System: AMES SALMONELLA TYPHIMURIUM, Strain/Indicator: TA100, Metabolic Activation: HAMSTER, LIVER, S-9, AROCLOR 1254 (10 OR 30%), Method: PREINCUBATION) was “inactive; negative”; the mutagenic call (Test System: AMES SALMONELLA TYPHIMURIUM, Strain/Indicator: TA100, Metabolic Activation: NONE, Method: PREINCUBATION) was “inactive; negative”; the mutagenic call (Test System: AMES SALMONELLA TYPHIMURIUM, Strain/Indicator: TA100, Metabolic Activation: RAT, LIVER, S-9, AROCLOR 1254 (10 OR 30%), Method: PREINCUBATION) was “inactive; negative”; the mutagenic call (Test System: AMES SALMONELLA TYPHIMURIUM, Strain/Indicator: TA1535, Metabolic Activation: HAMSTER, LIVER, S-9, AROCLOR 1254 (10 OR 30%), Method: PREINCUBATION) is “inactive; negative”; the mutagenic call (Test System: AMES SALMONELLA TYPHIMURIUM, Strain/Indicator: TA1535, Metabolic Activation: NONE, Method: PREINCUBATION) was “inactive; negative”; the mutagenic call (Test System: AMES SALMONELLA TYPHIMURIUM, Strain/Indicator: TA1535, Metabolic Activation: RAT, LIVER, S-9, AROCLOR 1254 (10 OR 30%), Method: PREINCUBATION) is “inactive; negative”.
